Measurements as given in ChEMBL document CHEMBL4715730, “Design, synthesis, and pharmacological evaluation of multitarget-directed ligands with both serotonergic subtype 4 receptor (5-HT4R) partial agonist and 5-HT6R antagonist activities, as potential treatment of Alzheimer's disease” (Eur J Med Chem, 2016).
Calls of active or inactive are those of the source. The rule behind the calls is not given here.

Assays:
[1] = biological target: 5-hydroxytryptamine receptor 4 (Cavia porcellus) (UniProt O70528); assay: Displacement of [3H]-GR113808 from guinea pig brain 5HT4 receptor at 0.01 uM in presence of serotonin incubated for 30 mins; assay type: tissue-based
[2] = biological target: T1, 5-hydroxytryptamine receptor 6 (Homo sapiens, UniProt P50406); assay: Displacement of [3H]-LSD from human 5-HT6 receptor expressed in HEK293 cells at 1 uM in presence of serotonin incubated for 60 mins; assay type: cell-based
[3] = biological target: 5-hydroxytryptamine receptor 4 (Cavia porcellus) (UniProt O70528); assay: Displacement of [3H]-GR113808 from guinea pig brain 5HT4 receptor at 1 uM in presence of serotonin incubated for 30 mins; assay type: tissue-based
[4] = biological target: T1, 5-hydroxytryptamine receptor 6; assay: Displacement of [3H]-LSD from human 5-HT6 receptor expressed in HEK293 cells at 0.01 uM in presence of serotonin incubated for 60 mins; assay type: cell-based
[5] = biological target: 5-hydroxytryptamine receptor 4 (Cavia porcellus, UniProt O70528); assay: Displacement of [3H]-GR113808 from guinea pig brain 5HT4 receptor in presence of serotonin incubated for 30 mins; assay type: tissue-based
[6] = biological target: T1, 5-hydroxytryptamine receptor 6; assay: Displacement of [3H]-LSD from human 5-HT6 receptor expressed in HEK293 cells in presence of serotonin incubated for 60 mins; assay type: cell-based
[7] = biological target: 5-hydroxytryptamine receptor 2B (Homo sapiens) (UniProt P41595); assay: Displacement of [125I]+/-DOI from human recombinant 5-HT2B receptor at 0.01 uM after 60 mins by scintillation counting analysis relative to control
[8] = Toxicity in NMRI mouse assessed as neurological changes upto 100 mg/kg, ip measured 0.5 to 24 hrs; assay type: organism-based; conditions: in vivo, time 0.5-24 hrs
Mus musculus [9] = assay: Anti-amnesic effect in scopolamine-induced memory impairment NMRI mouse model assessed as spatial working memory by measuring increase in spontaneous alteration at 0.1 mg/kg, ip measured after 30 mins by Y-maze test; assay type: functional, organism-based
[10] = biological target: T2, 5-hydroxytryptamine receptor 2A (Homo sapiens, UniProt P28223); assay: Displacement of [3H]ketanserin human recombinant 5-HT2A receptor at 10 uM after 60 mins by scintillation counting analysis relative to control
Mus musculus [11] = assay: Anti-amnesic effect in scopolamine-induced memory impairment NMRI mouse model assessed as spatial working memory by measuring increase in spontaneous alteration at 1 mg/kg, ip measured after 30 mins by Y-maze test; assay type: functional, organism-based
[12] = biological target: T2, 5-hydroxytryptamine receptor 2A; assay: Displacement of [3H]ketanserin human recombinant 5-HT2A receptor after 60 mins by scintillation counting analysis relative to control
[13] = biological target: 5-hydroxytryptamine receptor 1D (Rattus norvegicus) (UniProt P28565); assay: Displacement of [3H]serotonin from recombinant rat 5-HT1D receptor at 10 uM after 60 mins by scintillation counting analysis relative to control
Mus musculus [14] = assay: Anti-amnesic effect in scopolamine-induced memory impairment NMRI mouse model assessed as spatial working memory by measuring increase in spontaneous alteration at 10 mg/kg, ip measured after 30 mins by Y-maze test; assay type: functional, organism-based
[15] = biological target: T3, 5-hydroxytryptamine receptor 2C (Homo sapiens) (UniProt P28335); assay: Displacement of [125I]+/-DOI from human recombinant 5-HT2C receptor at 10 uM after 60 mins by scintillation counting analysis relative to control
T3 sequence (whole entry): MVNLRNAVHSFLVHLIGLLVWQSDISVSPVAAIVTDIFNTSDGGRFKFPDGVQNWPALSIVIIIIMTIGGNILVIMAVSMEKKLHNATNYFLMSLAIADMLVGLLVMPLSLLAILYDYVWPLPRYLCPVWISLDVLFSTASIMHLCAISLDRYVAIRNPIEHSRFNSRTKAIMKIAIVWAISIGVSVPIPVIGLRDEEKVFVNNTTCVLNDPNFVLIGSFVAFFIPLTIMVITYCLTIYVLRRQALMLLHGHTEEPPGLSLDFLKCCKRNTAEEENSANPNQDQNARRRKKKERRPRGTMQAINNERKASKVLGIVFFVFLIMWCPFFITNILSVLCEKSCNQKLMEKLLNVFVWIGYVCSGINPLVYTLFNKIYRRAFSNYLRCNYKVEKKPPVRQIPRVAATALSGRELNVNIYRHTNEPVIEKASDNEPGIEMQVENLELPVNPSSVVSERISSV

[16] = biological target: T4, 5-hydroxytryptamine receptor 2C (Homo sapiens, UniProt P28335); assay: Displacement of [125I]+/-DOI from human recombinant 5-HT2C receptor after 60 mins by scintillation counting analysis
T4 sequence (P28335 whole entry): T3 sequence (whole entry)

[17] = Toxicity in NMRI mouse assessed as behavioral changes upto 100 mg/kg, ip measured 0.5 to 24 hrs; assay type: organism-based; conditions: in vivo, time 0.5-24 hrs
[18] = Effect on spontaneous locomotory activity in NMRI mouse at 100 mg/kg, ip measured for 30 mins; assay type: organism-based; conditions: in vivo, 0.5 h
[19] = biological target: T5, 5-hydroxytryptamine receptor 1A (Homo sapiens) (UniProt P08908); assay: Displacement of [3H]8-OH-DPAT from recombinant human 5-HT1A receptor at 10 uM after 60 mins by scintillation counting analysis relative to control
T5 sequence (whole entry): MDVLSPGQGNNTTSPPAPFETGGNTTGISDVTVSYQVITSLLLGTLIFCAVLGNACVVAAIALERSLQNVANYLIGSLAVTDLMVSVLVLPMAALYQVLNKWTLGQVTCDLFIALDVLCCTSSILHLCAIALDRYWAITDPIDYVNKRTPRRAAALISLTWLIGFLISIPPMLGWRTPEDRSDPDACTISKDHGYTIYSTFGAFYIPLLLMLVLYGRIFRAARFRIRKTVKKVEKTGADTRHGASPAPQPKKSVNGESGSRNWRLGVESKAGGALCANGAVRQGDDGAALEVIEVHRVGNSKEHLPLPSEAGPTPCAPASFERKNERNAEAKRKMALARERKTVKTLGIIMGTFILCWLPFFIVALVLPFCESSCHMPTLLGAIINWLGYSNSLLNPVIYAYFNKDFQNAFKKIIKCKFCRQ

[20] = biological target: 5-hydroxytryptamine receptor 2B (Homo sapiens) (UniProt P41595); assay: Displacement of [125I]+/-DOI from human recombinant 5-HT2B receptor at 10 uM after 60 mins by scintillation counting analysis relative to control
[21] = biological target: 5-hydroxytryptamine receptor 1B (Rattus norvegicus) (UniProt P28564); assay: Displacement of [125I]-CYP from rat brain 5-HT1B receptor at 10 uM after 120 mins by scintillation counting analysis relative to control; assay type: tissue-based
Chain of 5-hydroxytryptamine receptor 1B (Rattus norvegicus) (P28564 whole entry): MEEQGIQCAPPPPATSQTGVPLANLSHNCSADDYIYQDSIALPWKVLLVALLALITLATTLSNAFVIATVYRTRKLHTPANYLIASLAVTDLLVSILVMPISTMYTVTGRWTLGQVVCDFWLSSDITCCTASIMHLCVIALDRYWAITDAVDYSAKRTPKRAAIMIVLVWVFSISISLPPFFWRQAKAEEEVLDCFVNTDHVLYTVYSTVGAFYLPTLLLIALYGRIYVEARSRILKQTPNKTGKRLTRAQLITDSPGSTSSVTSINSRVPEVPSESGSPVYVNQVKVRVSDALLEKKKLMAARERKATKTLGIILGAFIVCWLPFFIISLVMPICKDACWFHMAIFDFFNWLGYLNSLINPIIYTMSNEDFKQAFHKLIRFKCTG

T1 sequence (P50406 whole entry): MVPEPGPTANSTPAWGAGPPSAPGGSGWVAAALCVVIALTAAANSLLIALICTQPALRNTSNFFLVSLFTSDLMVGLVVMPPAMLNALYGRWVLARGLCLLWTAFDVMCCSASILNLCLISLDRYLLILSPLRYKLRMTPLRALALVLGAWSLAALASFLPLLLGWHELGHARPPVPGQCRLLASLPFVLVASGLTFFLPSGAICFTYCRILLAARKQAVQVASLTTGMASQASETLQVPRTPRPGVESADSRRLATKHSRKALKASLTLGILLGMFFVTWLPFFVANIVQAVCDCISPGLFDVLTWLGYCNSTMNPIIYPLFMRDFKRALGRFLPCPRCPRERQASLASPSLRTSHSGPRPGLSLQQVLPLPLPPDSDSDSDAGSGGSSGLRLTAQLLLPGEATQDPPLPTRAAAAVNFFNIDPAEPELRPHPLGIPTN
Chain of 5-hydroxytryptamine receptor 4 (O70528 whole entry): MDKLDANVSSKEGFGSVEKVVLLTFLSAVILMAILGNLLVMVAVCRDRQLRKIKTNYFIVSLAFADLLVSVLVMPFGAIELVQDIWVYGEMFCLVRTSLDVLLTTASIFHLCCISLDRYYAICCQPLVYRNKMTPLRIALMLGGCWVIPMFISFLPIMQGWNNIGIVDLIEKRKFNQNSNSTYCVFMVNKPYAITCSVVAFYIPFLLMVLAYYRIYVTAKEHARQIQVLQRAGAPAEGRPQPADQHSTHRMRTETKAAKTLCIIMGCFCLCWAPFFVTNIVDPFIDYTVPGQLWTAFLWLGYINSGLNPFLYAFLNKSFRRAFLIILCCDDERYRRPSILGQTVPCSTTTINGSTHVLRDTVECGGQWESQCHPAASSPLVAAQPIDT
Chain of 5-hydroxytryptamine receptor 4 (Cavia porcellus) (O70528 whole entry): as above
Chain of 5-hydroxytryptamine receptor 2B (Homo sapiens) (P41595 whole entry): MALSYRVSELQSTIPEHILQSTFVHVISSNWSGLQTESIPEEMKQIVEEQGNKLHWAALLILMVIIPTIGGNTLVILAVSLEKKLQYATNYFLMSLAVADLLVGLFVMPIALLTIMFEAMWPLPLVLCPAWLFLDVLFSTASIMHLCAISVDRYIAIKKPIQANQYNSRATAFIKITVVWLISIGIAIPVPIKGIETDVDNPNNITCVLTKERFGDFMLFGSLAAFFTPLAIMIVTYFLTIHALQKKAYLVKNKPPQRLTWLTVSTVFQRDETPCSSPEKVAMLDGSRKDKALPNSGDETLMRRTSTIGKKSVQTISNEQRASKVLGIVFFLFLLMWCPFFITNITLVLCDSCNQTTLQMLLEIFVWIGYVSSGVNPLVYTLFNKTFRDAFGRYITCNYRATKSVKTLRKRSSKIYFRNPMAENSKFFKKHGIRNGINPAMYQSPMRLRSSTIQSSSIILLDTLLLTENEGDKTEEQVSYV
T2 sequence (P28223 whole entry): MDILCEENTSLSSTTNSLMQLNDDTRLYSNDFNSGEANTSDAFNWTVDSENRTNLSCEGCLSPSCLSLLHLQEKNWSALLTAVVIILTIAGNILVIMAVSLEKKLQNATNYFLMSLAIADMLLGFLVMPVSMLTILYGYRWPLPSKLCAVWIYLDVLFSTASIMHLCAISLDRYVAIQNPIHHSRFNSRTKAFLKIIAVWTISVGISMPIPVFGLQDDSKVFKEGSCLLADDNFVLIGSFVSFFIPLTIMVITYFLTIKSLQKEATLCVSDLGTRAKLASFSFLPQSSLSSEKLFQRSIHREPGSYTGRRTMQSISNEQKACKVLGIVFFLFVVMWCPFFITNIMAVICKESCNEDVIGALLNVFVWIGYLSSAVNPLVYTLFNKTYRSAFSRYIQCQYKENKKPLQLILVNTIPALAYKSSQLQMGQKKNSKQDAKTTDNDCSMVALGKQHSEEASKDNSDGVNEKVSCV
Chain of 5-hydroxytryptamine receptor 1D (Rattus norvegicus) (P28565 whole entry): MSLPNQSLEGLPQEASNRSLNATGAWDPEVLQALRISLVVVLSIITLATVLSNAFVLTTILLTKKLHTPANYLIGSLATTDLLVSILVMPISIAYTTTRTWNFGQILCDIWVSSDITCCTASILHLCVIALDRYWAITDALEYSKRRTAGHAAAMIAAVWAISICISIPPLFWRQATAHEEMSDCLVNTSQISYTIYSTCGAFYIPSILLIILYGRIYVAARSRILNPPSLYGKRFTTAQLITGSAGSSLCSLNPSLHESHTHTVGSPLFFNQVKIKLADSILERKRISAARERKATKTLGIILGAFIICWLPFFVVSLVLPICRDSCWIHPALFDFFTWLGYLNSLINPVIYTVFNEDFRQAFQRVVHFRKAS

Row | SMILES | inhibition [1] [%] | inhibition [4] | inhibition ([1]; filed as agonist) [%] | Ki ([5]; read-out: Ki) [nM] | inhibition ([2]; filed as antagonist) [%] | inhibition ([3]; filed as agonist) [%] | other results
1 | COc1ccc(S(=O)(=O)N2CCC(CCC(=O)c3cc(Cl)c(N)cc3OC)CC2)cc1 | 10 | inactive |  |  |  |  | inhibition [2]: inactive; inhibition [3]: 20%
2 | COc1cc(N)c(Cl)cc1C(=O)CCC1CCN(CCNS(=O)(=O)c2cc(Br)ccc2Br)CC1 |  | 16% | 51 | 16.3 | 52 | 100 | 
3 | COc1cc(N)c(Cl)cc1C(=O)CCC1CCN(CCNS(=O)(=O)c2ccc3c(c2)NC(=O)CO3)CC1 | 30 | inactive |  | 6.2 |  | 100 | inhibition ([2]; filed as agonist): 40%
4 | COc1ccc(S(=O)(=O)CCCN2CCC(CCC(=O)c3cc(Cl)c(N)cc3OC)CC2)cc1 | 11 | 10% |  | 12.2 |  | 100 | inhibition [2]: 33%
5 | COc1ccc(S(=O)(=O)NCCN2CCC(CCC(=O)c3cc(Cl)c(N)cc3OC)CC2)c(OC)c1 | 19 | inactive |  | 18.7 | 45 | 100 | 
6 | COc1cc(N)c(Cl)cc1C(=O)CCC1CCN(CCNS(=O)(=O)c2cc(Br)c(N)c(Br)c2)CC1 |  |  | 46 | 8.7 | 83 | 100 | Ki ([6]; read-out: Ki): 140 nM; inhibition ([4]; filed as antagonist): 52%
7 | CCCCN1CCC(CCC(=O)c2cc(Cl)c(N)cc2OC)CC1 |  |  |  |  |  |  | Ki [5]: Active; Ki ([6]; hek293): Active
8 | COc1ccc(S(=O)(=O)NCCCN2CCC(CCC(=O)c3cc(Cl)c(N)cc3OC)CC2)cc1 |  | inactive | 41 | 26 |  | 100 | inhibition [2]: inactive
9 | COc1ccc(S(=O)(=O)NCCN2CCC(CCC(=O)c3cc(Cl)c(N)cc3OC)CC2)cc1Cl |  | 20% | 41 | 22.5 | 85 | 100 | Ki ([6]; read-out: Ki): 158 nM
10 | COc1ccc(NS(=O)(=O)c2sc3ccc(Cl)cc3c2C)cc1N1CCNCC1 |  |  |  |  |  |  | Ki ([6]; hek293): Active
11 | COc1ccc(S(=O)(=O)NCCN2CCC(CCC(=O)c3cc(Cl)c(N)cc3OC)CC2)cc1Br | 24 | inactive |  | 24.3 | 72 | 99 | Ki ([6]; read-out: Ki): 147 nM
12 | COc1ccc(S(=O)(=O)NCCN2CCC(CCC(=O)c3cc(Cl)c(N)cc3OC)CC2)cc1 |  | 36% | 48 | 12.3 | 52 | 100 | 

Further compounds by falling Ki ([5]; read-out: Ki), results first:

Row | inhibition [1] [%] | inhibition [4] | inhibition ([1]; filed as agonist) [%] | Ki ([5]; read-out: Ki) [nM] | inhibition ([2]; filed as antagonist) [%] | inhibition ([3]; filed as agonist) [%] | SMILES | other results
13 | 12 | inactive |  | 50 |  | 100 | COc1cc(N)c(Cl)cc1C(=O)CCC1CCN(CCNS(=O)(=O)c2ccc3c(c2)N(C)CCO3)CC1 | inhibition [2]: 7%
14 | 20 | inactive |  | 18 |  | 100 | COc1cc(N)c(Cl)cc1C(=O)CCC1CCN(CCNS(=O)(=O)c2ccc(C)cc2)CC1 | inhibition [2]: 15%
15 | 30 | 3% |  | 8.2 | 58 | 100 | COc1ccc(S(=O)(=O)NCCN2CCC(CCC(=O)c3cc(Cl)c(N)cc3OC)CC2)cc1OC | 
16 |  | 7% | 56 | 7.7 | 67 | 100 | COc1cc(N)c(Cl)cc1C(=O)CCC1CCN(CCNS(=O)(=O)c2ccc(NC(C)=O)cc2)CC1 | Ki ([6]; read-out: Ki): 834 nM
17 |  | 39% | 60 | 5.3 | 85 | 100 | COc1cc(N)c(Cl)cc1C(=O)CCC1CCN(CCNS(=O)(=O)c2ccc(N)c(Br)c2)CC1 | inhibition [7]: 41%; Activity [8]: Non-Toxic; Activity (Mus musculus [9]): inactive; inhibition [10]: 93.6%; Activity (Mus musculus [11]): Active; Ki ([6]; read-out: Ki): 219 nM; Ki [12]: 330 nM; inhibition [13]: 51.1%; Activity (Mus musculus [14]): inactive; inhibition [15]: 92.6%; Ki [16]: 160 nM; Activity [17]: Non-Toxic; Activity [18]: Non-Toxic; inhibition [19]: 66.1%; inhibition [20]: 100%; inhibition [21]: 62.3%
18 |  | 4% | 75 | 3.46 | 43 | 97 | COc1cc(N)c(Cl)cc1C(=O)CCC1CCN(CCNS(=O)(=O)c2ccc(OC)c(N3CCN(C)CC3)c2)CC1 | 
19 |  | 7% | 76 | 1.97 | 46 | 100 | COc1cc(N)c(Cl)cc1C(=O)CCC1CCN(CCNS(=O)(=O)c2ccc(N)cc2)CC1 | 
